Measurements as given in patent publication US20110136916A1, “6-SHOGAOL FOR USING IN A METHOD FOR THE TREATMENT OF LEUKEMIA” (China Pharmaceutical University, priority 2009, published 2011).
Read-outs that look alike come from different tables or passages of the source.

Tested on: human acute T cell leukemic cell Jurkat
Assay: MTT anti-proliferation, Jurkat
Assay type: cell-based
Conditions: for growth inhibition (activities of cells vs control): 1-20 μM; for IC50: MTT
Description: Cells in logarithmic growth phase were collected and then inoculated in 1˜2×10^4 cells/well in a 96-well plate respectively according to the sizes of cells and whether they attached to the wall, the cells were centrifuged and the supernatant was removed after growing for 24 hours, and then drug administration was carried out according to the groups as below: the drug group and the drug free group were set up for tumor cells (the concentrations ranged from 1˜20 μM), 5 or 6 duplicates were set for each group and the cells were incubated for 24 or 72 hours. The supernatant was removed and 100 μl serum free culture solution containing 0.5 mg/ml MTT (tetrazolium) was added for further incubation for 4 hours, subsequently 100 μl DMSO (dimethyl sulfoxide) was added and the plate was kept on the micro-shaker for 10 minutes, and the OD value was determined on a micro-plate reader at the wavelength of 570 nm. Evaluations on the toxicity were carried out on normal human cell line LO-2 and each test was repeated for three times.

CCCCC/C=C/C(=O)CCc1ccc(O)c(OC)c1 [6-shogaol]
growth inhibition (activities of cells vs control) (24 hours, FIG. 3): significantly decreased
growth inhibition (activities of cells vs control) (72 hours, FIG. 7): significantly decreased
IC50 (Homo sapiens, 24 h, 24 hours, n = 3, read-out: Mean IC50 after 24 hours): < 10 µM
IC50 (Homo sapiens, 72 h, 72 hours, n = 3, read-out: Mean IC50 after 72 hours): < 5 µM
IC50 (24 hours, n = 3, read-out: Mean IC50 after 24 hours): 5.6 ± 0.4 µM
IC50 (72 hours, n = 3, read-out: Mean IC50 after 72 hours): 3.3 ± 0.3 µM
